Values quoted from earlier work, collected in patent US20060163529A1, “Water-based coolant fluid for engine applications” (Neste Oil Oyj, priority 2002, published 2006).

Tested on: rats
Conditions: tested orally in rats

SMILES	LD50
CC(O)CO (centres unmarked) [Propylene glycol, propylene glycol]	20 000 mg/kg
C[N+](C)(C)CC(=O)O [Trimethyl glycine, trimethyl glycine]	11 200 mg/kg
